Source: ChEMBL document CHEMBL1139671, “Nuphar alkaloids with immediately apoptosis-inducing activity from Nuphar pumilum and their structural requirements for the activity” (2006)
Calls of active or inactive are those of the source. No cut-off for these calls is given here.

What was measured:
B16-F10 [1] = experiment: Cytotoxicity against B16F10 cells at 0.1 uM after 48 hrs; assay type: functional; details: Mus musculus, B16-F10, 48 h
B16-F10 [2] = experiment: Cytotoxicity against B16F10 cells at 1.0 uM after 48 hrs; assay type: functional; details: Mus musculus, B16-F10, 48 h
B16-F10 [3] = experiment: Cytotoxicity against B16F10 cells at 10 uM after 48 hrs; assay type: functional; details: Mus musculus, B16-F10, 48 h
B16-F10 [4] = experiment: Cytotoxicity against B16F10 cells at 0.1 uM after 72 hrs; assay type: functional; details: Mus musculus, B16-F10, 72 h
B16-F10 [5] = experiment: Cytotoxicity against B16F10 cells at 1.0 uM after 72 hrs; assay type: functional; details: Mus musculus, B16-F10, 72 h
B16-F10 [6] = experiment: Cytotoxicity against B16F10 cells at 10 uM after 72 hrs; assay type: functional; details: Mus musculus, B16-F10, 72 h
HT-1080 [7] = experiment: Cytotoxicity against HT1080 cells at 0.1 uM after 24 hrs; assay type: functional; details: Homo sapiens, HT-1080, 24 h
HT-1080 [8] = experiment: Cytotoxicity against HT1080 cells at 10 uM after 72 hrs; assay type: functional; details: Homo sapiens, HT-1080, 72 h
U-937 [9] = experiment: Induction of apoptosis in U937 cells by DNA fragmentation assay; assay type: functional, cell-based; details: Homo sapiens
HT-1080 [10] = experiment: Cytotoxicity against HT1080 cells at 1.0 uM after 24 hrs; assay type: functional; details: Homo sapiens, HT-1080, 24 h
HT-1080 [11] = experiment: Cytotoxicity against HT1080 cells at 10 uM after 24 hrs; assay type: functional; details: Homo sapiens, HT-1080, 24 h
HT-1080 [12] = experiment: Cytotoxicity against HT1080 cells at 0.1 uM after 48 hrs; assay type: functional; details: Homo sapiens, HT-1080, 48 h
HT-1080 [13] = experiment: Cytotoxicity against HT1080 cells at 1.0 uM after 48 hrs; assay type: functional; details: Homo sapiens, HT-1080, 48 h
HT-1080 [14] = experiment: Cytotoxicity against HT1080 cells at 10 uM after 48 hrs; assay type: functional; details: Homo sapiens, HT-1080, 48 h
HT-1080 [15] = experiment: Cytotoxicity against HT1080 cells at 0.1 uM after 72 hrs; assay type: functional; details: Homo sapiens, HT-1080, 72 h
HT-1080 [16] = experiment: Cytotoxicity against HT1080 cells at 1.0 uM after 72 hrs; assay type: functional; details: Homo sapiens, HT-1080, 72 h
U-937 [17] = experiment: Cytotoxicity against U937 cells at 1.0 uM after 72 hrs; assay type: functional; details: Homo sapiens, U-937, 72 h
U-937 [18] = experiment: Cytotoxicity against U937 cells at 10 uM after 72 hrs; assay type: functional; details: Homo sapiens, U-937, 72 h
U-937 [19] = experiment: Cytotoxicity against U937 cells at 1.0 uM after 24 hrs; assay type: functional; details: Homo sapiens, U-937, 24 h
U-937 [20] = experiment: Cytotoxicity against U937 cells at 10 uM after 24 hrs; assay type: functional; details: Homo sapiens, U-937, 24 h
U-937 [21] = experiment: Cytotoxicity against U937 cells at 1.0 uM after 48 hrs; assay type: functional; details: Homo sapiens, U-937, 48 h
U-937 [22] = experiment: Cytotoxicity against U937 cells at 10 uM after 48 hrs; assay type: functional; details: Homo sapiens, U-937, 48 h
B16-F10 [23] = experiment: Cytotoxicity against B16F10 cells at 10 uM after 24 hrs; assay type: functional; details: Mus musculus, B16-F10, 24 h
U-937 [24] = experiment: Cytotoxicity against U937 cells at 0.1 uM after 72 hrs; assay type: functional; details: Homo sapiens, U-937, 72 h
U-937 [25] = experiment: Cytotoxicity against U937 cells at 0.1 uM after 24 hrs; assay type: functional; details: Homo sapiens, U-937, 24 h
U-937 [26] = experiment: Cytotoxicity against U937 cells at 0.1 uM after 48 hrs; assay type: functional; details: Homo sapiens, U-937, 48 h
B16-F10 [27] = experiment: Cytotoxicity against B16F10 cells at 0.1 uM after 24 hrs; assay type: functional; details: Mus musculus, B16-F10, 24 h
B16-F10 [28] = experiment: Cytotoxicity against B16F10 cells at 1.0 uM after 24 hrs; assay type: functional; details: Mus musculus, B16-F10, 24 h
U-937 [29] = experiment: Cytotoxicity against U937 cells at 0.03 uM after 72 hrs; assay type: functional; details: Homo sapiens, U-937, 72 h
B16-F10 [30] = experiment: Cytotoxicity against B16F10 cells at 0.03 uM after 24 hrs; assay type: functional; details: Mus musculus, B16-F10, 24 h
B16-F10 [31] = experiment: Cytotoxicity against B16F10 cells at 0.03 uM after 48 hrs; assay type: functional; details: Mus musculus, B16-F10, 48 h
B16-F10 [32] = experiment: Cytotoxicity against B16F10 cells at 0.03 uM after 72 hrs; assay type: functional; details: Mus musculus, B16-F10, 72 h
HT-1080 [33] = experiment: Cytotoxicity against HT1080 cells at 0.03 uM after 24 hrs; assay type: functional; details: Homo sapiens, HT-1080, 24 h
HT-1080 [34] = experiment: Cytotoxicity against HT1080 cells at 0.03 uM after 48 hrs; assay type: functional; details: Homo sapiens, HT-1080, 48 h
HT-1080 [35] = experiment: Cytotoxicity against HT1080 cells at 0.03 uM after 72 hrs; assay type: functional; details: Homo sapiens, HT-1080, 72 h
U-937 [36] = experiment: Cytotoxicity against U937 cells at 0.03 uM after 24 hrs; assay type: functional; details: Homo sapiens, U-937, 24 h
U-937 [37] = experiment: Cytotoxicity against U937 cells at 0.03 uM after 48 hrs; assay type: functional; details: Homo sapiens, U-937, 48 h

Structure (SMILES)	inhibition at 0.1 µM (B16-F10 [1])	inhibition at 1 µM (B16-F10 [2])	inhibition at 10 µM (B16-F10 [3])	inhibition at 0.1 µM (B16-F10 [4])	inhibition at 1 µM (B16-F10 [5])	inhibition at 10 µM (B16-F10 [6])	inhibition at 10 µM (HT-1080 [8])	inhibition at 0.1 µM (HT-1080 [12])	inhibition at 1 µM (HT-1080 [13])	inhibition at 10 µM (HT-1080 [14])	inhibition at 0.1 µM (HT-1080 [15])	inhibition at 1 µM (HT-1080 [16])	inhibition at 1 µM (U-937 [17])	inhibition at 10 µM (U-937 [18])	inhibition at 1 µM (U-937 [19])	inhibition at 10 µM (U-937 [20])	inhibition at 1 µM (U-937 [21])	inhibition at 10 µM (U-937 [22])	other results
C[C@@H]1CC[C@@H](c2ccoc2)N2C[C@@]3(CC[C@@H]12)CS[C@@]1(CC[C@H]2[C@H](C)CC[C@@H](c4ccoc4)N2[C@@H]1O)C3	10.3%	27.3%	97.3%	11.1%	20.8%	98.7%	99.2%	1.6%	8.3%	97.5%	5.4%	15.7%	-1%	94.3%	3.6%	83.2%	1.3%	92.5%	inhibition at 0.1 µM (HT-1080 [7]): 1.8%; Activity (U-937 [9]): Active; inhibition at 1 µM (HT-1080 [10]): 14%; inhibition at 10 µM (HT-1080 [11]): 96.1%; inhibition at 10 µM (B16-F10 [23]): 88.6%
C[C@@H]1CC[C@@H](c2ccoc2)N2C[C@]3(CC[C@@H]12)CS[C@]1(CC[C@H]2[C@H](C)CC[C@@H](c4ccoc4)N2C1)C3 [NEOTHIOBINUPHARIDINE]	4.4%	-8.9%	24.7%	8.9%	4%	30.2%	38%	-1%	-4.1%	7.5%	-3.4%	-0.8%	-1.2%	40.1%	5.2%	50.7%	5.4%	65.6%	–
C[C@@H]1CC[C@@H](c2ccoc2)N2C[C@@]3(CC[C@@H]12)C[C@]1(CC[C@H]2[C@H](C)CC[C@@H](c4ccoc4)N2[C@@H]1O)CS3 [6'-HYDROXYTHIONUPHLUTINE B]	–	–	–	1.7%	-1.6%	-4.8%	-9.1%	–	–	–	-9.8%	-7.3%	0.1%	0.5%	–	–	–	–	–
CC[C@@]1(O)C(=O)OCc2c1cc1n(c2=O)Cc2cc3ccccc3nc2-1 [CAMPTOTHECIN]	39.1%	83.2%	94.7%	76.9%	93.5%	98.1%	93.8%	-11.7%	77%	93.1%	5.4%	65.8%	98.2%	98%	75.8%	75%	94.6%	98.2%	inhibition at 0.1 µM (HT-1080 [7]): -0.4%; inhibition at 1 µM (HT-1080 [10]): 49.5%; inhibition at 10 µM (HT-1080 [11]): 62%; inhibition at 0.1 µM (U-937 [24]): 95.3%; inhibition at 0.1 µM (U-937 [25]): 46%; inhibition at 0.1 µM (U-937 [26]): 90.6%; inhibition at 0.1 µM (B16-F10 [27]): 16.2%; inhibition at 1 µM (B16-F10 [28]): 47.8%; inhibition at 10 µM (B16-F10 [23]): 60.6%; inhibition at 0.03 µM (U-937 [29]): 78.5%; inhibition at 0.03 µM (B16-F10 [30]): -1.9%; inhibition at 0.03 µM (B16-F10 [31]): 7.5%; inhibition at 0.03 µM (B16-F10 [32]): 33.4%; inhibition at 0.03 µM (HT-1080 [33]): -3.8%; inhibition at 0.03 µM (HT-1080 [34]): -7.1%; inhibition at 0.03 µM (HT-1080 [35]): -3.2%; inhibition at 0.03 µM (U-937 [36]): 7.1%; inhibition at 0.03 µM (U-937 [37]): 61.9%
C[C@@H]1CC[C@@H](c2ccoc2)N2C[C@@]3(CC[C@@H]12)C[S+]([O-])[C@]1(CC[C@H]2[C@H](C)CC[C@@H](c4ccoc4)N2C1)C3 (stereo partly drawn)	–	–	–	10.4%	3.2%	10.8%	-4.4%	–	–	–	-6.1%	-8.1%	4.7%	6.3%	–	–	–	–	–
C[C@@H]1CC[C@H]2[C@H](C)CC[C@@H](c3ccoc3)N2C1 [(-)-7-EPI-DEOXYNUPHARIDINE]	–	–	–	-1.5%	-9.8%	-7.9%	-10.1%	–	–	–	–	-6.6%	6.4%	8%	–	–	–	–	–
C[C@@H]1CC[C@@H](c2ccoc2)N2C[C@](C)(O)CC[C@@H]12 [NUPHAROLUTINE]	–	–	–	-3.1%	-1.2%	-0.9%	-16.7%	–	–	–	-12.9%	-13.2%	12.5%	2.8%	–	–	–	–	–
